Measured values taken from publication PMC9851200, “Multiparameter phenotypic screening for endogenous TFEB and TFE3 translocation identifies novel chemical series modulating lysosome function” (Autophagy, 2022).

Assays:
Assay type in all cases: binding
[1] = target: kinases (KINOMEscan panel) (Homo sapiens, UniProt P42685); settings: kinase FRK; NEW KINOMEscan
[2] = target: kinases (KINOMEscan panel) (Homo sapiens, UniProt P11802); settings: NEW KINOMEscan; for KINOMEscan CDK4-cyclinD3: kinase CDK4-cyclinD3; for KINOMEscan CDK4: kinase CDK4
[3] = target: T1, kinases (KINOMEscan panel) (Homo sapiens, UniProt Q8NE63); settings: kinase HIPK4; NEW KINOMEscan
T1 sequence (Q8NE63 1-616): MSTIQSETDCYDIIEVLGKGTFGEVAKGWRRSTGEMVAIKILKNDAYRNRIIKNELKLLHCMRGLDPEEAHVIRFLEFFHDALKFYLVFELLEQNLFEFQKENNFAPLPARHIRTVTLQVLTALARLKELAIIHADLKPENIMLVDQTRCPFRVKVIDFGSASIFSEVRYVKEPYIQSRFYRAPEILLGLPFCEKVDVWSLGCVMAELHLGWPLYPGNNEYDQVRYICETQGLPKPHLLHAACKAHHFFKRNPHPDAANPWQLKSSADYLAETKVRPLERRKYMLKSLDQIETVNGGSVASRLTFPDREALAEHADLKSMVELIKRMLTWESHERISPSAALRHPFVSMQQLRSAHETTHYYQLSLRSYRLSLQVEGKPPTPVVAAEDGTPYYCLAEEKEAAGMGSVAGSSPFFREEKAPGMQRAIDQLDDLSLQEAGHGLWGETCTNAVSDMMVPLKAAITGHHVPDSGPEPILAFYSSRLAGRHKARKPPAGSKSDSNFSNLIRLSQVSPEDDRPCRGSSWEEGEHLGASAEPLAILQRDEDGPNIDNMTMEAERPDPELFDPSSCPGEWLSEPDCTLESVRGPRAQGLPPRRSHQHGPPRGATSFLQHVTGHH

[4] = target: kinases (KINOMEscan panel) (Homo sapiens, UniProt P04626); settings: kinase ERBB2; NEW KINOMEscan
[5] = target: T2, kinases (KINOMEscan panel) (Homo sapiens, UniProt Q9NWZ3); settings: IRAK4; NEW KINOMEscan
T2 sequence (Q9NWZ3 1-460): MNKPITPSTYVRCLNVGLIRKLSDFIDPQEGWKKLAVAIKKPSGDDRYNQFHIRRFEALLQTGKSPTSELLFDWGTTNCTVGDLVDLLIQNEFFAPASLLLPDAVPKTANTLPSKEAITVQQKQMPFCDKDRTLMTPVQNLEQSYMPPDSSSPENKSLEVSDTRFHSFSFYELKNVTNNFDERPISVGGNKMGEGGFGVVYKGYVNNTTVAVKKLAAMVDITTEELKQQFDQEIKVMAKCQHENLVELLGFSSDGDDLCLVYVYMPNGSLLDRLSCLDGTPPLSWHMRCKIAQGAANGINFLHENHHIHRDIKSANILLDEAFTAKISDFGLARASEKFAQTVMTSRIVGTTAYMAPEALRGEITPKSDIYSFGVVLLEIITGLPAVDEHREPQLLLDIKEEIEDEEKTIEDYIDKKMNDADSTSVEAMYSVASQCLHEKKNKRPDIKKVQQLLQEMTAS

[6] = target: kinases (KINOMEscan panel) (Homo sapiens, UniProt Q07912); settings: TNK2; NEW KINOMEscan
[7] = target: T3, kinases (KINOMEscan panel) (Homo sapiens, UniProt O75385); settings: NEW KINOMEscan
T3 sequence (O75385 1-1050): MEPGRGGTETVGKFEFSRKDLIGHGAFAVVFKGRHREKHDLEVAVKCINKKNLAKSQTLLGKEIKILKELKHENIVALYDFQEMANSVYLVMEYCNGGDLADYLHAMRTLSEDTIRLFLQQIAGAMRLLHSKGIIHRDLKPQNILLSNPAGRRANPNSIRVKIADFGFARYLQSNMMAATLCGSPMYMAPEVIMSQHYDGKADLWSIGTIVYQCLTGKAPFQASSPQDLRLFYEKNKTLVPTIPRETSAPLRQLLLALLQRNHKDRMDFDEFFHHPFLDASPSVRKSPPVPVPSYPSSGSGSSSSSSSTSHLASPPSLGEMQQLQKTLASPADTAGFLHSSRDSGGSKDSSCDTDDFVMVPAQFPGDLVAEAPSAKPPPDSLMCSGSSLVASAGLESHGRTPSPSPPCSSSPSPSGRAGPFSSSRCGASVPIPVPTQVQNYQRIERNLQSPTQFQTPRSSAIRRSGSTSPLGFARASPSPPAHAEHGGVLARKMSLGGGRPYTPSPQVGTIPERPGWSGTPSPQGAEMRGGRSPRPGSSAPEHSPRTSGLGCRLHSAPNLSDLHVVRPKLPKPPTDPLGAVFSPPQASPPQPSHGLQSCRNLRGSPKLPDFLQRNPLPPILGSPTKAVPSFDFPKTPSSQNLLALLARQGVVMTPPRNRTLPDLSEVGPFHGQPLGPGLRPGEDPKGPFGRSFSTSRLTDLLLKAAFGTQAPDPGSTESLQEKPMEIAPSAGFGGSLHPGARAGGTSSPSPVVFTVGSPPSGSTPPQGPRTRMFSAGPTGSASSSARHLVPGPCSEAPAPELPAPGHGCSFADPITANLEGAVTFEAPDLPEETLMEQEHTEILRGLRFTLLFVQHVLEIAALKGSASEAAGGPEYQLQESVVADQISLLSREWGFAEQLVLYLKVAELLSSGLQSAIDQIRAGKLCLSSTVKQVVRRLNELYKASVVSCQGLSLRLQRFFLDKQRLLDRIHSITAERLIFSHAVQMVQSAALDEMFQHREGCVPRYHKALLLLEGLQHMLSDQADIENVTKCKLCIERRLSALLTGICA

[8] = target: kinases (KINOMEscan panel) (Homo sapiens, UniProt P50613); settings: kinase CDK7; NEW KINOMEscan
kinases (KINOMEscan panel) (Homo sapiens, UniProt P50613), sequence (P50613 whole entry): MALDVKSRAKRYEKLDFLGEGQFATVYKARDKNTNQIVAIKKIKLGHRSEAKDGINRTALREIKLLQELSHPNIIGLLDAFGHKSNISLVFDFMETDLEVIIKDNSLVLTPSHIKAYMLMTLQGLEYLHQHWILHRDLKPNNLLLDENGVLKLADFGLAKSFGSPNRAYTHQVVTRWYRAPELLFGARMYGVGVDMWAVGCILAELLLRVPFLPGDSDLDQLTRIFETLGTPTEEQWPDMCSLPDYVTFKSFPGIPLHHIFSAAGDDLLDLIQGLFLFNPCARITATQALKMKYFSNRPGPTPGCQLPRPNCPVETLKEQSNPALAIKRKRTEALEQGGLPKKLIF

kinases (KINOMEscan panel) (Homo sapiens, UniProt P11802), sequence (P11802 whole entry): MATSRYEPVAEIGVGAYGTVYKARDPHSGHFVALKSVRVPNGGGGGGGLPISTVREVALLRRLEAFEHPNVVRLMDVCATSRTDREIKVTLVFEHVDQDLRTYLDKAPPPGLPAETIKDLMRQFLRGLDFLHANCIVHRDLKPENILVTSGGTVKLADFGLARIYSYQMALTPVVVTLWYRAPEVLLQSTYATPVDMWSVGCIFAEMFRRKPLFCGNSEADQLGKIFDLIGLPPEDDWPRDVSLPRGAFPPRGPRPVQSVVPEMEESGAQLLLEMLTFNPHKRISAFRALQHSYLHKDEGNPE
kinases (KINOMEscan panel) (Homo sapiens, UniProt Q07912), sequence (Q07912 whole entry): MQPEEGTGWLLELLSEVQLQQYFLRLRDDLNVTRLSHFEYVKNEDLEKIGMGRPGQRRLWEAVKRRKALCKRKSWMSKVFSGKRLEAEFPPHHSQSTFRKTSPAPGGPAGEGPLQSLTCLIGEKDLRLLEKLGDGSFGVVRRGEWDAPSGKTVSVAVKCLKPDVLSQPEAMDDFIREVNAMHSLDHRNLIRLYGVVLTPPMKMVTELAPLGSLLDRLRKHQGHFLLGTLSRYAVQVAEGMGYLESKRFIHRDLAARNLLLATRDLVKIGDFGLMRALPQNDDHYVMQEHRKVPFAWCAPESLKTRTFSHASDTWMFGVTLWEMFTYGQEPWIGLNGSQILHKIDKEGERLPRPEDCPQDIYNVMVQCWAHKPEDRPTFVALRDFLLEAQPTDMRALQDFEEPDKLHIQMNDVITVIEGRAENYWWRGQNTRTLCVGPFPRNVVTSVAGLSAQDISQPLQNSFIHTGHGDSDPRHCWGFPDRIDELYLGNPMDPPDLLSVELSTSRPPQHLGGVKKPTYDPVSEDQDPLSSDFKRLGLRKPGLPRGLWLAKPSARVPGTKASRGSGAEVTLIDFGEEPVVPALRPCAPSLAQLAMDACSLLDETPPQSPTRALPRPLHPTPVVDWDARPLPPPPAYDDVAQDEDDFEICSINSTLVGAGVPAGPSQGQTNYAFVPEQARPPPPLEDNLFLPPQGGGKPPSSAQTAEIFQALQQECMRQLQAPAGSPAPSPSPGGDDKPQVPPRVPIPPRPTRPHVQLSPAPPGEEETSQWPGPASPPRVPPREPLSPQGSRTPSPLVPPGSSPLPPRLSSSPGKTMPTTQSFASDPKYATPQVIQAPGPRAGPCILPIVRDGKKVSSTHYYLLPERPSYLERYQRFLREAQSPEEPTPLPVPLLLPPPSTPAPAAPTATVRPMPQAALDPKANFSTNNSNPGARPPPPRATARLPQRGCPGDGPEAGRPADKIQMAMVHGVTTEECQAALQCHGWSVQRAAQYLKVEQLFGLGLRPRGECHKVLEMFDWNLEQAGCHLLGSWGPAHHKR
kinases (KINOMEscan panel) (Homo sapiens, UniProt P42685), sequence (P42685 whole entry): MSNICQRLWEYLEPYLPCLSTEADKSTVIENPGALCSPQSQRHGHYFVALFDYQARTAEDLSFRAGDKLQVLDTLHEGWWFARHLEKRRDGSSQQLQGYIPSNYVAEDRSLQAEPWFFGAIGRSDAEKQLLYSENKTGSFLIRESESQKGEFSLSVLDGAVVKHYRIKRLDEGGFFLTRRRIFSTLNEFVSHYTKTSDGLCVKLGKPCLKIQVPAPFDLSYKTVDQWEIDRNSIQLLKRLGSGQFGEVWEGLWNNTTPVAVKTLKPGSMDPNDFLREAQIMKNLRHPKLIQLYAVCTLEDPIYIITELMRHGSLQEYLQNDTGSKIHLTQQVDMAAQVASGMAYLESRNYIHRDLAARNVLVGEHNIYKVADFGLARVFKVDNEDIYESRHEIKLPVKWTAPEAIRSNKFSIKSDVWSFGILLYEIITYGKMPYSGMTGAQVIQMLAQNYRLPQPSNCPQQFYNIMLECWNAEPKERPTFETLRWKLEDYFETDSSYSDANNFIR
kinases (KINOMEscan panel) (Homo sapiens, UniProt P04626), sequence (P04626 23-1255): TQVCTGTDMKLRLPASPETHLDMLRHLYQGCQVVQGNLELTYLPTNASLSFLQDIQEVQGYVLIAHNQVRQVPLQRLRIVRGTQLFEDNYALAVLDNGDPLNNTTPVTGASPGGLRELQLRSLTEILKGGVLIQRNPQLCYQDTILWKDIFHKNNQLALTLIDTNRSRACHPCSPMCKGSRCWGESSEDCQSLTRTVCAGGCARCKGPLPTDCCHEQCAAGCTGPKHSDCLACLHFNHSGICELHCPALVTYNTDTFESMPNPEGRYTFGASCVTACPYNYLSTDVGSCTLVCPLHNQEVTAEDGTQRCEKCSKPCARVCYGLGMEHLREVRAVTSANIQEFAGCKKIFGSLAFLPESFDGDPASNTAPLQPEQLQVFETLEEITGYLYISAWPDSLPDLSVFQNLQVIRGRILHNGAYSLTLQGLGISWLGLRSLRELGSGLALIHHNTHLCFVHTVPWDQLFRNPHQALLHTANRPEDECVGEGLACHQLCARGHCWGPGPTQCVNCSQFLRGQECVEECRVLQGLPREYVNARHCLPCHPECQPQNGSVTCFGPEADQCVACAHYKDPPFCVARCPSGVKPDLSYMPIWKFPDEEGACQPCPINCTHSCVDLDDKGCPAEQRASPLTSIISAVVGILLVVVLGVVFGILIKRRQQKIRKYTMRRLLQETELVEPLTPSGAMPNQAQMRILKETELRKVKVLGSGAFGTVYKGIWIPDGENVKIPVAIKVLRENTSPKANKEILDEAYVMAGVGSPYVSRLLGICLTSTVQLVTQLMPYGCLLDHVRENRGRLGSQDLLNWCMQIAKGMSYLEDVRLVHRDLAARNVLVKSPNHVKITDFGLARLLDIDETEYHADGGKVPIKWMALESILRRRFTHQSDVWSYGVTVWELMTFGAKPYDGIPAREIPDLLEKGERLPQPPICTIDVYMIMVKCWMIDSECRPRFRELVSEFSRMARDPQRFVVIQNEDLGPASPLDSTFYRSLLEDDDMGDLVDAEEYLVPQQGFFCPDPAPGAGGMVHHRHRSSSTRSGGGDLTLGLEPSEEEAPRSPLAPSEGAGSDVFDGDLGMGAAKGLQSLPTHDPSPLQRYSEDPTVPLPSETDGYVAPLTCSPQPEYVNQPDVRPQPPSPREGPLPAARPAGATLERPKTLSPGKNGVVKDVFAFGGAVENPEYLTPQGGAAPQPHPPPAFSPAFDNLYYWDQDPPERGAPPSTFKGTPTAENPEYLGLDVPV

| Structure (SMILES) | KINOMEscan FRK [1] | KINOMEscan CDK4-cyclinD1 (???) CCND1 [2] | KINOMEscan CDK4-cyclinD3 [2] | KINOMEscan CDK4 [2] | KINOMEscan HIPK4 [3] | KINOMEscan ERBB2 [4] | KINOMEscan IRAK4 [5] | KINOMEscan TNK2 [6] | KINOMEscan ULK1 [7] | KINOMEscan CDK7 [8] |
| --- | --- | --- | --- | --- | --- | --- | --- | --- | --- | --- |
| Cc1cccc(-c2nc(Nc3ccc4nn(C)cc4c3)c3ccccc3n2)n1 [NK167] | 0 | 10 | 0 | 0 | 7 | 0 | 0 | 0 | 8 | 0 |
| Cc1cccc(-c2nc(N(C)c3ccc4ncsc4c3)c3ccccc3n2)n1 [NK-161] | 0 | 18 | 0 | 0 | 25 | 0 | 0 | 0 | 18 | 7 |
